In PubChem BioAssay (NCI):
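Five concentrations, 48 hours, 96-well plates. GI50 = concentration required for 50% inhibition of growth. The concentration for full growth arrest is given as TGI.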

Experiments:
Experiment in all cases: DTP human tumour cell line panel, 48 h
CAKI-1 renal = system: CAKI-1 renal
IGROV1 ovarian = system: IGROV1 ovarian
K-562 leukemia = system: K-562 leukemia
MOLT-4 leukemia = system: MOLT-4 leukemia
NCI-H460 lung = system: NCI-H460 lung
SF-295 CNS = system: SF-295 CNS
SK-MEL-5 melanoma = system: SK-MEL-5 melanoma
SK-OV-3 ovarian = system: SK-OV-3 ovarian
SNB-75 CNS = system: SNB-75 CNS
SW-620 colon = system: SW-620 colon

Structure (SMILES)	TGI (CAKI-1 renal)	TGI (IGROV1 ovarian)	TGI (K-562 leukemia)	TGI (MOLT-4 leukemia)	TGI (NCI-H460 lung)	TGI (SF-295 CNS)	TGI (SK-MEL-5 melanoma)	TGI (SK-OV-3 ovarian)	TGI (SNB-75 CNS)	TGI (SW-620 colon)	GI50 (CAKI-1 renal)	GI50 (IGROV1 ovarian)	GI50 (K-562 leukemia)	GI50 (MOLT-4 leukemia)	GI50 (NCI-H460 lung)	GI50 (SF-295 CNS)	GI50 (SK-MEL-5 melanoma)	GI50 (SNB-75 CNS)	GI50 (SW-620 colon)	GI50 (SK-OV-3 ovarian)
C[N+]1(CCC(=O)c2ccccc2)CCC2CCC(C2)C1 (configuration not stated)	> 100 µM	> 100 µM	> 100 µM	> 100 µM	> 100 µM	> 100 µM	> 100 µM	> 100 µM	> 100 µM	> 100 µM	–	–	–	–	–	–	–	–	–	–
CCOC(=O)c1c(-c2cccc(Cl)c2)c(C(=O)OC)c(C)c2sc(C=O)nc12	43 µM	32.9 µM	89.8 µM	48.1 µM	50.1 µM	32.5 µM	30.4 µM	92.2 µM	> 100 µM	> 100 µM	–	–	–	–	–	–	–	–	–	–
O=C(Nc1ccc(-n2ccc3c(NC(=O)c4ccccc4)nccc32)cc1)Nc1cccc(C(F)(F)F)c1	37.4 µM	30.9 µM	10.5 µM	10.9 µM	13.4 µM	18.8 µM	20.7 µM	–	23.3 µM	18.9 µM	10.8 µM	10 µM	2.68 µM	2.65 µM	2.74 µM	3.75 µM	7.2 µM	7.67 µM	4.96 µM	–
O=C(/C=C1\N=C(c2ccccc2)N(c2nc3c(Cl)cc(Cl)cc3s2)C1=O)/C=C/c1ccccc1	> 100 µM	> 100 µM	> 100 µM	> 100 µM	> 100 µM	> 100 µM	> 100 µM	> 100 µM	> 100 µM	> 100 µM	–	–	–	–	–	–	–	–	–	–
N#Cc1ccccc1C#C/C=C\C#Cc1ccccc1N	0.634 µM	–	> 100 µM	> 100 µM	> 100 µM	5.01 µM	19 µM	> 100 µM	> 25.3 µM	> 100 µM	0.129 µM	–	4.12 µM	3.68 µM	5.43 µM	1.28 µM	3.34 µM	6.13 µM	3.76 µM	3.22 µM
CC1=C[C@@H](C)C[C@]2(C)CC[C@H](O2)[C@]23CC[C@](CO)(C[C@H](O2)[C@@H]2O[C@@](C)(CC2=O)[C@@H](O)[C@H]2CC[C@@]4(CCC[C@@H](O4)[C@H](C)C(=O)O[C@H]4C[C@H]([C@]5(O)OCC[C@H](C)[C@@H]5O)O[C@H]4C=C1)O2)O3	0.107 µM	0.0561 µM	> 10 µM	> 10 µM	> 10 µM	> 10 µM	> 10 µM	0.159 µM	0.00179 µM	> 10 µM	–	–	–	–	–	–	–	–	–	–
CN(C)C(=O)OC1=CC2CCC(C1)N2C (configuration not stated)	> 100 µM	> 100 µM	> 100 µM	> 100 µM	> 100 µM	> 100 µM	> 100 µM	> 100 µM	> 100 µM	> 100 µM	–	–	–	–	–	–	–	–	–	–
CC(=O)Nc1ccc(C(=O)NN2C(=O)C(Cl)C2c2cccc([N+](=O)[O-])c2)cc1 (configuration not stated)	–	> 100 µM	> 100 µM	> 100 µM	> 100 µM	> 100 µM	> 100 µM	> 100 µM	> 100 µM	> 100 µM	–	–	–	–	–	–	–	–	–	–
CS(C)(=O)=Nn1c(=O)n2n(c1=O)C1c3ccccc3C2c2ccccc21	> 100 µM	> 100 µM	> 100 µM	> 100 µM	> 100 µM	> 100 µM	> 100 µM	> 100 µM	–	> 100 µM	–	–	–	–	–	–	–	–	–	–
COc1ccc(-c2nn(-c3ccc(NC(=O)c4cc(Cl)cc(Cl)c4)cc3)cc2-c2ccncc2)cc1Cl	> 100 µM	> 100 µM	> 100 µM	> 100 µM	> 100 µM	5.49 µM	> 100 µM	–	–	> 100 µM	3.04 µM	> 100 µM	1.86 µM	2.83 µM	6.08 µM	0.695 µM	8.09 µM	–	> 100 µM	–
COC(=O)c1cc(NC(=O)c2cc(NC(=O)Cc3c[nH]c4ccccc34)cn2C)cn1C	> 100 µM	–	> 100 µM	> 100 µM	> 100 µM	> 100 µM	63.8 µM	> 100 µM	92.9 µM	> 100 µM	–	–	–	–	–	–	–	–	–	–
Cc1ccc2nc(-c3ccc(NC(=O)c4ccc(N)cc4)c(S(=O)(=O)O)c3)sc2c1	> 100 µM	> 100 µM	> 100 µM	> 100 µM	> 100 µM	> 100 µM	> 100 µM	> 100 µM	> 100 µM	> 100 µM	–	–	–	–	–	–	–	–	–	–
COc1cccc(/C=N/[N-]C(N)=O)c1[O-].[Ni+2].[OH3+]	2.19 µM	0.811 µM	2.31 µM	1.58 µM	1.65 µM	2.36 µM	1.65 µM	1.69 µM	1.57 µM	0.371 µM	–	–	–	–	–	–	–	–	0.135 µM	–
Cc1oc(N)c(S(=O)(=O)c2cc3ccccc3n(O)c2=N)c1C	> 100 µM	> 100 µM	–	> 100 µM	> 100 µM	> 100 µM	> 100 µM	> 100 µM	> 100 µM	> 100 µM	–	–	–	–	–	–	–	–	–	–
CCOCC(=O)N(C)c1cccc2c3c(n(C)c12)CCCCC3	> 100 µM	> 100 µM	> 100 µM	> 100 µM	> 100 µM	> 100 µM	> 100 µM	> 100 µM	> 100 µM	> 100 µM	–	–	–	–	–	–	–	–	–	–
Cn1c2[n+](c3nc(N)[nH]c(=O)c31)C1OC(C2)C(O)C1O (configuration not stated)	> 100 µM	> 100 µM	> 100 µM	> 100 µM	–	> 100 µM	> 100 µM	> 100 µM	> 100 µM	> 100 µM	–	–	–	–	–	–	–	–	–	–
COc1cc(C2c3cc4c(cc3[C@@H](Nc3ccc(Oc5ccccc5)cc3)C3COC(=O)[C@H]23)OCO4)cc(OC)c1O (some centres not stated)	6.76 µM	> 100 µM	> 32.4 µM	2 µM	12.2 µM	> 100 µM	5.99 µM	> 52 µM	96.9 µM	> 100 µM	–	–	–	–	–	–	–	–	–	–

Structure (SMILES)	TGI (CAKI-1 renal)	TGI (IGROV1 ovarian)	TGI (K-562 leukemia)	TGI (MOLT-4 leukemia)	TGI (NCI-H460 lung)	TGI (SF-295 CNS)	TGI (SK-MEL-5 melanoma)	TGI (SK-OV-3 ovarian)	TGI (SNB-75 CNS)	TGI (SW-620 colon)	GI50 (CAKI-1 renal)	GI50 (IGROV1 ovarian)	GI50 (K-562 leukemia)	GI50 (MOLT-4 leukemia)	GI50 (NCI-H460 lung)	GI50 (SF-295 CNS)	GI50 (SK-MEL-5 melanoma)	GI50 (SNB-75 CNS)	GI50 (SW-620 colon)	GI50 (SK-OV-3 ovarian)
O=C(CC(c1ccccc1)C1C(=O)NC(=S)NC1=O)c1ccc([N+](=O)[O-])cc1 (configuration not stated)	59.4 µM	> 100 µM	> 100 µM	> 100 µM	> 100 µM	> 100 µM	> 100 µM	> 100 µM	> 100 µM	> 100 µM	–	–	–	–	–	–	–	–	–	–
Clc1ccc(Nc2nc(Nc3ccccc3)nc(Nc3ccc(-c4cc(-c5ccc(Cl)cc5)on4)cc3)n2)cc1	69.2 µM	> 100 µM	> 100 µM	> 100 µM	> 100 µM	77.6 µM	> 100 µM	> 100 µM	> 100 µM	> 100 µM	15.3 µM	12.7 µM	21.4 µM	21 µM	17.9 µM	12.6 µM	24 µM	21.6 µM	26.4 µM	29 µM
Nc1nnc(CCC(=O)Nc2cc(Cl)ccc2Cl)n1N	> 100 µM	> 100 µM	> 100 µM	> 100 µM	> 100 µM	> 100 µM	> 100 µM	> 100 µM	> 100 µM	> 100 µM	–	–	–	–	–	–	–	–	–	–
O=C1C2Cc3c(n(C(=O)c4ccccc4)c4ccccc34)CC2C(=O)N1c1ccc(Nc2ccc(N3C(=O)C4Cc5c(n(C(=O)c6ccccc6)c6ccccc56)CC4C3=O)cc2)cc1 (configuration not stated)	> 100 µM	> 100 µM	> 100 µM	> 100 µM	> 100 µM	> 100 µM	> 100 µM	> 100 µM	> 100 µM	–	–	–	–	–	–	–	–	–	–	–
CC1=CC(O)C(C(O)(C(F)(F)F)C(F)(F)F)C(C)(C)C1 (configuration not stated)	> 10 µM	0.986 µM	> 10 µM	> 10 µM	> 10 µM	> 10 µM	0.163 µM	> 10 µM	> 10 µM	> 10 µM	–	–	–	–	–	–	–	–	–	–
OCCCSCCO	> 100 µM	> 100 µM	> 100 µM	> 100 µM	> 100 µM	> 100 µM	> 100 µM	> 100 µM	> 100 µM	> 100 µM	–	–	–	–	–	–	–	–	–	–
O=C(O)C(O)C(O)C(O)C(O)C(=O)O (configuration not stated)	> 100 µM	> 100 µM	> 100 µM	> 100 µM	> 100 µM	> 100 µM	> 100 µM	> 100 µM	> 100 µM	> 100 µM	–	–	–	–	–	–	–	–	–	–
CC1C(=O)c2cc3c(cc2CCN(C)Cc2c1ccc1c2OCO1)OCO3 (configuration not stated)	> 75 µg/mL	> 75 µg/mL	> 75 µg/mL	> 75 µg/mL	> 75 µg/mL	> 75 µg/mL	> 75 µg/mL	> 75 µg/mL	> 75 µg/mL	> 75 µg/mL	> 75 µg/mL	> 75 µg/mL	24.7 µg/mL	21.8 µg/mL	40.3 µg/mL	> 75 µg/mL	37.1 µg/mL	> 75 µg/mL	> 75 µg/mL	> 75 µg/mL
Cc1cc2ccc(OC(=O)c3ccc(N=C(N)N)cc3)cc2oc1=O	> 100 µM	> 100 µM	74.9 µM	54.4 µM	> 100 µM	> 100 µM	> 100 µM	46.4 µM	71.9 µM	78.5 µM	–	–	–	–	–	–	–	–	–	–
O=C1/C(=C/c2[nH]ncc2-c2ccc(Cl)cc2)C(=O)N(c2ccccc2)C1c1ccccc1 (configuration not stated)	31.1 µM	45.1 µM	54.5 µM	41 µM	> 100 µM	50.7 µM	27.5 µM	56.3 µM	–	45.2 µM	–	–	–	–	–	–	–	–	–	–
O/C(=C\c1nc2ccccc2nc1/C=C(\O)c1ccc(F)cc1)c1ccc(F)cc1	> 100 µM	> 100 µM	> 100 µM	> 100 µM	> 100 µM	–	> 100 µM	–	> 100 µM	> 100 µM	–	–	–	–	–	–	–	–	–	–
Nc1cc(S(=O)(=O)O)cc2ccc(S(=O)(=O)O)cc12	> 100 µM	> 100 µM	> 100 µM	–	> 100 µM	> 100 µM	> 100 µM	> 100 µM	> 100 µM	> 100 µM	–	–	–	–	–	–	–	–	–	–
Cc1n[n+]([O-])c(C)cc1[N+](=O)[O-]	–	49 µM	–	–	28.4 µM	–	29.8 µM	> 100 µM	54 µM	28.2 µM	–	–	–	–	–	–	–	–	–	–
CC1(C(=O)O)C[C@](C)(C(=O)OCc2ccccc2)C[C@](C)(C(=O)OCc2ccccc2)C1 (some centres not stated)	71.2 µM	52.7 µM	> 100 µM	67.6 µM	57.5 µM	61.9 µM	> 100 µM	> 100 µM	79.7 µM	> 100 µM	–	–	–	–	–	–	–	–	–	–
O=C(Cc1csc2nc(-c3ccc(Cl)cc3)cn12)N/N=C/c1ccccc1O	16 µM	> 100 µM	> 100 µM	> 100 µM	> 100 µM	> 100 µM	> 100 µM	> 100 µM	> 100 µM	> 100 µM	0.782 µM	3.05 µM	3.42 µM	2.17 µM	1.39 µM	5.21 µM	2.93 µM	4.32 µM	6.81 µM	5.05 µM
O=S(=O)(O)c1ccc2c(N=Nc3ccc(N=Nc4ccccc4)cc3)c(O)c(S(=O)(=O)O)cc2c1	> 100 µM	> 100 µM	> 100 µM	> 100 µM	> 100 µM	> 100 µM	> 100 µM	> 100 µM	–	> 100 µM	–	–	–	–	–	–	–	–	–	–
N=c1ccc2nc(N)nn(O)c-2c1	> 100 µM	> 100 µM	> 100 µM	> 100 µM	> 100 µM	–	> 100 µM	> 100 µM	> 100 µM	> 100 µM	–	–	–	–	–	–	–	–	–	–
